Holding throughout (assay): biochemical
Holding throughout (design): PDE enzyme inhibition, 3H-cAMP / 3H-cGMP scintillation proximity assay

One test has as its target T1, PDE9A (Homo sapiens, UniProt O76083).
T1 construct: full-length, Sf9 cell-free extract
Here is the method: (§1) PDE activity assays were performed as previously described. Briefly, cell-free extracts were prepared from Sf9 insect cells recombinantly expressing full-length human PDEs (PDE2A, 3A, 3B, 4B, 7B, 8A, 9A, 10A, 11A). PDE5 was purified from human platelets by homogenization (Microfluidizer, 800 bar, 3 passages), centrifugation (75,000 × g, 60 min, 4 °C), and ion exchange chromatography of the supernatant on a Mono Q 10/10 column (linear NaCl gradient, eluted with 0.2–0.3 M NaCl in a buffer containing 20 mM Hepes pH 7.2 and 2 mM MgCl2). Fractions containing PDE5 activity were pooled and stored at −80 °C. PDE6 was purified from rod outer segments of bovine retinae by Dr. Körschen, Forschungszentrum Jülich, Germany[34]. Bovine PDE1 was purchased from Sigma-Aldrich (P9529, Taufkirchen, Germany). Enzyme inhibition studies were carried out using the commercially available 3H-cAMP and 3H-cGMP Scintillation Proximity Assay (SPA) systems (RPNQ0150, Perkin-Elmer, Rodgau, Germany).

The target in another test is T2, PDE5 (Homo sapiens, UniProt O76074).
T2 construct: gene PDE5A; native, purified from human platelets
Here is the method:
as §1

The target of another test is T3, PDE8A (Homo sapiens, UniProt O60658).
T3 construct: full-length, Sf9 cell-free extract
As to the method: as §1

The next test concerns the target T4, PDE3B (Homo sapiens, UniProt Q13370).
T4 construct: full-length human PDE3B, Sf9 cell-free extract
As to the method: as §1

Another test has as its target T5, PDE10A (Homo sapiens, UniProt Q9Y233).
T5 construct: full-length, Sf9 cell-free extract
Here is the method: as §1

For the next test, the target named is T6, PDE6 (Bos taurus, UniProt P11541+P23439).
T6 construct: gene PDE6A; native, purified from rod outer segments of bovine retinae
T6 sequence (P11541 1-859): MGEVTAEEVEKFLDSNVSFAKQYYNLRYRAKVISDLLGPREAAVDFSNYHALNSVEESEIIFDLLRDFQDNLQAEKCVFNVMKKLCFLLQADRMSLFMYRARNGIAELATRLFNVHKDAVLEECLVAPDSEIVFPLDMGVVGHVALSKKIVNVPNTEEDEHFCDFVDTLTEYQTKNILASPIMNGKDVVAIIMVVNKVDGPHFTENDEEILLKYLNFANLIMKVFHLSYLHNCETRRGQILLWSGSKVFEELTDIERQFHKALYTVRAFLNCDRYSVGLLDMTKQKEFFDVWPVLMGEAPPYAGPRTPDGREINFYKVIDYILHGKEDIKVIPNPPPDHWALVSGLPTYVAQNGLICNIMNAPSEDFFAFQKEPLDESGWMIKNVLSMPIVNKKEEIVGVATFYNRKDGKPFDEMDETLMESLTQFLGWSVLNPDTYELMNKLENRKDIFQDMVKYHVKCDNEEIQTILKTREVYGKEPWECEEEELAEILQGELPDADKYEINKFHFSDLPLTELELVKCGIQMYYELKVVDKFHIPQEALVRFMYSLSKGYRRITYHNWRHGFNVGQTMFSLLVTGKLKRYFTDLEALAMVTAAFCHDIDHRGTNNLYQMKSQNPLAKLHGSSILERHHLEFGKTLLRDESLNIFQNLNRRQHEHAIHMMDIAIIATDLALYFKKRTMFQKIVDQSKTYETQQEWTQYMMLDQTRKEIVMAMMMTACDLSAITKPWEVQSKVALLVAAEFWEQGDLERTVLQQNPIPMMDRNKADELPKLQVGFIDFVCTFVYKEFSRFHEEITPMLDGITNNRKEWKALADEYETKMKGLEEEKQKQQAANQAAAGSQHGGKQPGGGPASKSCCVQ
T6 sequence (P23439 1-853): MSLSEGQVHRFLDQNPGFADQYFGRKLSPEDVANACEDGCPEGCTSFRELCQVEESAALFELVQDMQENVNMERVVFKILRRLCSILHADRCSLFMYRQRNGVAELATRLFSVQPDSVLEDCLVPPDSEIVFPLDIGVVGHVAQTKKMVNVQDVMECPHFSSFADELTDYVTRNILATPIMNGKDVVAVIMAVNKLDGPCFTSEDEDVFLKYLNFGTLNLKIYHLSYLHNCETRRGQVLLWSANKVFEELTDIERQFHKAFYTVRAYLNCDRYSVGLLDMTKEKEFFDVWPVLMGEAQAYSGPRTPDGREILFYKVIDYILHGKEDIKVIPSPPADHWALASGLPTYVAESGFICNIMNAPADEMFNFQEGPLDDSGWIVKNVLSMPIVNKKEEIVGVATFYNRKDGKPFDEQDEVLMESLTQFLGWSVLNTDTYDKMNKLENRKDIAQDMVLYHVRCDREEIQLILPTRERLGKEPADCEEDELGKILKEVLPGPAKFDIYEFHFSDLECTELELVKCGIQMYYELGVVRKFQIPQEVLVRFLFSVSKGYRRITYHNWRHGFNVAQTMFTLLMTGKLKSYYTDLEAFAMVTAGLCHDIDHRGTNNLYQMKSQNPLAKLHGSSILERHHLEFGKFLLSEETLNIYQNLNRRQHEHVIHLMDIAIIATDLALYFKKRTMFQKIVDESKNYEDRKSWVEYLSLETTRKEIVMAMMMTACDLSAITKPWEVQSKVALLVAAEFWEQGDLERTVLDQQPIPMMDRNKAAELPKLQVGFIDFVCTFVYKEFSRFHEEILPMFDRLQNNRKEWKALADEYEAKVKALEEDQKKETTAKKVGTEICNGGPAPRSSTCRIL
As to the method: as §1

The target of a further test is T7, PDE3A (Homo sapiens, UniProt Q14432).
T7 construct: full-length, Sf9 cell-free extract
Here is the method:
as §1

Another test deals with T8, PDE11A (Homo sapiens, UniProt Q9HCR9).
T8 construct: full-length, Sf9 cell-free extract
Here is the method:
as §1

The target in the next test is T9, PDE2A (Homo sapiens, UniProt O00408).
T9 construct: full-length, Sf9 cell-free extract
As to the method: as §1

The next test has as its target T10, PDE7B (Homo sapiens, UniProt Q9NP56).
T10 construct: full-length, Sf9 cell-free extract
Here is the method:
as §1

T10 sequence (Q9NP56 whole entry): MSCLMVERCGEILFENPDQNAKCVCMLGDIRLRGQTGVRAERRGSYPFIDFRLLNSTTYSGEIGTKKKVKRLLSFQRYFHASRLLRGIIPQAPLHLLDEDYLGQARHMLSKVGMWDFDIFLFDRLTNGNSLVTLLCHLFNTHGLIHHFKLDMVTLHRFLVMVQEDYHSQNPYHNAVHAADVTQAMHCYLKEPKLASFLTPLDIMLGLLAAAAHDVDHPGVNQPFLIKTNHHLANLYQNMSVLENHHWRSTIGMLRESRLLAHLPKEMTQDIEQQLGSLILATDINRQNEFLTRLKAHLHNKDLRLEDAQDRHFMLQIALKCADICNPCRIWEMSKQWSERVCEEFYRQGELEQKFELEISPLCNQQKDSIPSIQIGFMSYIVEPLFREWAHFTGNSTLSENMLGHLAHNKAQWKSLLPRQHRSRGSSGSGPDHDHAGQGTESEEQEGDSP
T4 sequence (Q13370 whole entry): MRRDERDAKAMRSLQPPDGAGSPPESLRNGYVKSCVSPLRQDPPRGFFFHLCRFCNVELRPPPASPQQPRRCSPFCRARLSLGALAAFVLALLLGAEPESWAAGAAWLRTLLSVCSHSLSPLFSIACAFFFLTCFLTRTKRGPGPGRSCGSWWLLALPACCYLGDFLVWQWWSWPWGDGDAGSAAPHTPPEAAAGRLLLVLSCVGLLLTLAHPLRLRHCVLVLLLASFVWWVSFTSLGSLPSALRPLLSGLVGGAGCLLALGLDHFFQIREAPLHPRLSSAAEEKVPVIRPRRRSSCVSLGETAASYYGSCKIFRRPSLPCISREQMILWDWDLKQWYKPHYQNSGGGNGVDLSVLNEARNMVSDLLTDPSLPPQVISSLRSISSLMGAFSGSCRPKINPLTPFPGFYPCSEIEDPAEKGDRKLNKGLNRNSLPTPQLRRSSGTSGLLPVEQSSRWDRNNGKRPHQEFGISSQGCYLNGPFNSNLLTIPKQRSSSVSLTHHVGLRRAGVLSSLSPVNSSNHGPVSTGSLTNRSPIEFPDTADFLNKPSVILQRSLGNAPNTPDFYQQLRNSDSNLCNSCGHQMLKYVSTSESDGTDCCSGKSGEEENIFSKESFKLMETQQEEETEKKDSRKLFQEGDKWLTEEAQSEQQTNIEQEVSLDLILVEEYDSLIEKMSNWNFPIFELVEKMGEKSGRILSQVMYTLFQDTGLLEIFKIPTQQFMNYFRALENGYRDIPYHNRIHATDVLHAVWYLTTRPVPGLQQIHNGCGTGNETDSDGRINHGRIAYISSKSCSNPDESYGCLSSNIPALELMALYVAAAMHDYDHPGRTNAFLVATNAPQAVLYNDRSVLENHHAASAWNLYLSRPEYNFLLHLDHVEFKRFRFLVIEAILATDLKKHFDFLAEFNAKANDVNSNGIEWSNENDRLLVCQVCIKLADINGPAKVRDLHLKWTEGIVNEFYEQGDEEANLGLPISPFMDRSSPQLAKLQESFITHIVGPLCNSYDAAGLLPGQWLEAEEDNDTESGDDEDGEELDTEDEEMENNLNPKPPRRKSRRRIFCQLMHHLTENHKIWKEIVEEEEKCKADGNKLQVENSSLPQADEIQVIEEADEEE
T3 sequence (O60658 whole entry): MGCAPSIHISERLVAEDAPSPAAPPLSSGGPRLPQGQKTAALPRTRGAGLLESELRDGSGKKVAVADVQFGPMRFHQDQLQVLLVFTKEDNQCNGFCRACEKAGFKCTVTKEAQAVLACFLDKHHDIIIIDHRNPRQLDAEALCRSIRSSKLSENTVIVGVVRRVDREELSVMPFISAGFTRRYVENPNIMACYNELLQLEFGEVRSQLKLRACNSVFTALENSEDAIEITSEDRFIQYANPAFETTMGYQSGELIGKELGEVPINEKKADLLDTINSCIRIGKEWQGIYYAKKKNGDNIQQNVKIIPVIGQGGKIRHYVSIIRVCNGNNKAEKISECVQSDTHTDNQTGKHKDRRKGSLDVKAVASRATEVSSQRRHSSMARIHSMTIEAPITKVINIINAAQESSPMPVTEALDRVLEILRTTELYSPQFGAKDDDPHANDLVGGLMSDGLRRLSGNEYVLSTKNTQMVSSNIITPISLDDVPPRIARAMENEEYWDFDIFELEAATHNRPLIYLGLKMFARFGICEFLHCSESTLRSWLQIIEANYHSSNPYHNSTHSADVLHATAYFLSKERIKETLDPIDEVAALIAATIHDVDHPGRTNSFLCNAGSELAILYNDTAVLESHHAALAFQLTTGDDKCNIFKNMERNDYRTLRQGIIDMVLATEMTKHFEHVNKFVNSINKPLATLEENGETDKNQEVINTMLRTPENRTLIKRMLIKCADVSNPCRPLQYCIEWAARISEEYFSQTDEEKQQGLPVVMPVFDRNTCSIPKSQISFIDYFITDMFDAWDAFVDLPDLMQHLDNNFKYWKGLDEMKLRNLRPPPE
T9 sequence (O00408 whole entry): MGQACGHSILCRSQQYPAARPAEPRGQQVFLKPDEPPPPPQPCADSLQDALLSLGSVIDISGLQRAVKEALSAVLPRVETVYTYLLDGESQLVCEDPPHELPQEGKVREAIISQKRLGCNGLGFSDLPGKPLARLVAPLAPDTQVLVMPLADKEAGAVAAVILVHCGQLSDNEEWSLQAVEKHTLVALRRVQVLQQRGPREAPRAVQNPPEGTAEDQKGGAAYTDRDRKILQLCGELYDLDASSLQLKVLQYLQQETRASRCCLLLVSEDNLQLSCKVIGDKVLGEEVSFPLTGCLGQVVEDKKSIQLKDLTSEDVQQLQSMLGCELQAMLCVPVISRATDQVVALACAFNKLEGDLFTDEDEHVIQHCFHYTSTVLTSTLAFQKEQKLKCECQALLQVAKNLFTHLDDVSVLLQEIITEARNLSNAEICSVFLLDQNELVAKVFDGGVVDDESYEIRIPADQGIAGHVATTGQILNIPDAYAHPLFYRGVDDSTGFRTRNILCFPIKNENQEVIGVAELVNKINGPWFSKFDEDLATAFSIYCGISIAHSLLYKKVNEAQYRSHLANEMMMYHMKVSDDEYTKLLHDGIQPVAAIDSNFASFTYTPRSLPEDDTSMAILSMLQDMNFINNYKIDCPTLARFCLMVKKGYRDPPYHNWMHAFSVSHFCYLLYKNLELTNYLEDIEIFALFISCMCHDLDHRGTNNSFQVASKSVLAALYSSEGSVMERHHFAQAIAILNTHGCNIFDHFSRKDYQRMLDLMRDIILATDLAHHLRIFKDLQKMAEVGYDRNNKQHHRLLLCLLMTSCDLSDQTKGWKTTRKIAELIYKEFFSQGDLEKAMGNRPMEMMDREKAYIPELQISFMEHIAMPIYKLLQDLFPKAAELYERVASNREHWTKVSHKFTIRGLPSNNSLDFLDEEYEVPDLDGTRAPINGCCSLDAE
T7 sequence (Q14432 whole entry): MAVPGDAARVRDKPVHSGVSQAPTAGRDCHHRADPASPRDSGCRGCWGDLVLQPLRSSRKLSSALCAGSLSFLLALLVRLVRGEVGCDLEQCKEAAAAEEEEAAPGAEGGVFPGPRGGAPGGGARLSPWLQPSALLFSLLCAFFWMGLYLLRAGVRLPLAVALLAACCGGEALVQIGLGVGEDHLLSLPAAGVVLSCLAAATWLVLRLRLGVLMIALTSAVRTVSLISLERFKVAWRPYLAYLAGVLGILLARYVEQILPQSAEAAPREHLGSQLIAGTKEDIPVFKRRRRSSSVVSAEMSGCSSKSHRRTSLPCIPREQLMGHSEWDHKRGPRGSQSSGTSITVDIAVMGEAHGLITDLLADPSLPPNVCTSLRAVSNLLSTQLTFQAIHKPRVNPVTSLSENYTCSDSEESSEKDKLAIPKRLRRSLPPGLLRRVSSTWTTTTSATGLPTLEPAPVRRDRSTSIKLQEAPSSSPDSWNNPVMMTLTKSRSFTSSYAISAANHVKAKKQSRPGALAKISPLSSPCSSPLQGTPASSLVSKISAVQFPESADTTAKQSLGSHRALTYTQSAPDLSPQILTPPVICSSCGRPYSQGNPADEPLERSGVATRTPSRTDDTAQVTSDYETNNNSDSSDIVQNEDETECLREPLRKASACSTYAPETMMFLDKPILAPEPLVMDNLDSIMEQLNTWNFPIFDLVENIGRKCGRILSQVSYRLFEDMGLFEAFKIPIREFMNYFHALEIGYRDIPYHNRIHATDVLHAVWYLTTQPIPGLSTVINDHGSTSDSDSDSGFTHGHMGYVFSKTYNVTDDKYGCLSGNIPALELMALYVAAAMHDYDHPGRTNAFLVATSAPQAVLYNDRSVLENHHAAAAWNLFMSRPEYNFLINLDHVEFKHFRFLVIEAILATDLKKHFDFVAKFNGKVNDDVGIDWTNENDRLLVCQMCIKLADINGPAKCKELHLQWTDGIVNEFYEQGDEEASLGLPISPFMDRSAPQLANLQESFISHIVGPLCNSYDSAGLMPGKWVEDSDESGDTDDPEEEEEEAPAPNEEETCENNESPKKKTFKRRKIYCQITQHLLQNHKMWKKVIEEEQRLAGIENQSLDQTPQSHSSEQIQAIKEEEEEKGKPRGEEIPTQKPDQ
T1 sequence (O76083 whole entry): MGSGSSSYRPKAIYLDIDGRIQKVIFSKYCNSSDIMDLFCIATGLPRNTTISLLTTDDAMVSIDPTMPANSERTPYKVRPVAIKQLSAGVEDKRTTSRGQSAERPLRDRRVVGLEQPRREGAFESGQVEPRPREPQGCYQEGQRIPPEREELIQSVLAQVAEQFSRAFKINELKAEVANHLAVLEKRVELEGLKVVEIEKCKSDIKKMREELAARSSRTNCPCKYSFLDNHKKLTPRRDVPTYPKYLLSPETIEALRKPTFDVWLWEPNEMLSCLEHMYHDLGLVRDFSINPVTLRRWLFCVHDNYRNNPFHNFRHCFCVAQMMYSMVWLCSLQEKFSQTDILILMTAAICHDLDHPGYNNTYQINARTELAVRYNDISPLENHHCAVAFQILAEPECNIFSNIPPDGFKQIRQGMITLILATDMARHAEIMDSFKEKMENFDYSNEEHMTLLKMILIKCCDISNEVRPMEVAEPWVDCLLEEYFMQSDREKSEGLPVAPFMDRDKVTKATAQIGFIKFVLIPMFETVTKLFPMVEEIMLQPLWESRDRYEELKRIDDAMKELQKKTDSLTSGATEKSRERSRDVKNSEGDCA

By IC50 is commonly meant the point on the concentration scale where inhibition reaches its midpoint. Regarding `COc1cc2c(cc1OC)-c1c/c(=N\c3c(C)cc(C)cc3C)n(C)c(=O)n1CC2` [trequinsin], the IC50 at PDE9A was more than 10000 nM; against PDE5, 870 nM; against PDE8A, 8000 nM; on PDE3B, 0.05 nM; at PDE10A, 49.8 nM; against PDE6 it was 1200 nM. The IC50 was 0.023 nM against PDE3A, 1000 nM against PDE11A, 785 nM against PDE2A and more than 10000 nM against PDE7B.

The values are drawn from paper PMC8285493 (Nature Communications, 2021).
